Where a name gives a salt, the structure may show the parent alone. Read-outs that look alike come from different tables or passages of the source.

Assay [1] relates to Human Lung Non-Small Cancer Cell Line A549. Put plainly: Cytotoxicity (cell growth inhibition, trypan blue exclusion count) in A549 cultures. As to conditions: based on concentration of doxorubicin. As to the method: (§1) For evaluation of cytotoxicity in vitro cells of different human tumour cell lines were purchased from American Type Culture Collection (Rockville, Md., USA): Human Breast Adenocarcinoma Cell Line MDA-MB-231 (ATCC-HTB-26, Lot 3576799), Human Ovary Adenocarcinoma Cell Line SKOV-3 (ATCC-HTB-77, Lot 3038337) and Human Lung Non-Small Cancer Cell Line A549 (ATCC-CCL-185, Lot 3244171). MDA-MB-231 cells were propagated in MEM culture medium with 2 mM L-glutamine, 10% fetal bovine serum (FBS) and antibiotics. SKOV-3 cells were cultured in McCoy's 5A culture medium, supplemented with 1.5 mM L-glutamine, 10% FBS and antibiotics. All media and supplements were purchased from Sigma-Aldrich Co. (St. Louis, Mi., USA). […]
(§2) The cell cultures in the cultivation plates were allowed to adhere for 24 hour of incubation. […] At the end of the incubation period adherent cells were detached by trypsinization and the number of viable cells was counted using trypan blue exclusion test and a hemocytometer. […] The results were expressed as mean cell number±SE and the differences between control and test series evaluated by means of Student's t-test. The drug cytotoxicity was evaluated based on the extent of cell growth inhibition.
(§3) IC50 were based on concentration of doxorubicin. Enhancement factors were calculated versus doxorubicin.

Assay [2] relates to Human Ovary Adenocarcinoma SKOV-3 Cell Line. Put plainly: Cytotoxicity (cell growth inhibition, trypan blue exclusion count) in SKOV-3 cultures. As to conditions: for docetaxel-doxorubicin mixtures based on the sum of amounts of cytostatica. On the procedure: MDA-MB-231 cells were propagated in MEM culture medium with 2 mM L-glutamine, 10% fetal bovine serum (FBS) and antibiotics. SKOV-3 cells were cultured in McCoy's 5A culture medium, supplemented with 1.5 mM L-glutamine, 10% FBS and antibiotics. […] Cell propagation of all lines was carried out in BD Falcon™ 25 or 75 cm^2 cultivation flasks (Becton Dickinson Labware). A549 cells were cultured in Ham's F-12 culture medium with 1 mM L-glutamine, 10% FBS and antibiotics. Cell propagation of all lines was carried out in BD Falcon™ 25 or 75 cm^2 cultivation flasks.
These plates were seeded by cells at 8×10^3 cells/well for MDA-MB-231, at 10×10^3 cells/well for SKOV-3 or at 6×10^3 cells/well for A549 in a volume of 200 μl/well. Both flasks and cultivation plates were incubated for cell growth at 37° C. in a humidified atmosphere of 95% air and 5% CO2.
On day 1 after cell seeding 4 μL solutions of the formulations to be tested with different concentrations in appropriate solvents were added to wells with cultures (dose—response experiments). […] The cells were incubated within 2-4 consecutive days.
EF was calculated versus ADRIAMYCIN®. IC50 for the docetaxel-doxorubicin mixtures is based on the sum of amounts of cytostatica.
as §3

The test system of assay [3] is Human Breast Adenocarcinoma MDA-MB-231 Cell Line. Put plainly: cells. On the procedure: as §1, §2, §3
[4] abbreviates: SK-OV-3, 72 h, SKOV-3, day 3, mean ± SE, read-out: IC50 day 3.
[5] abbreviates: SK-OV-3, 96 h, SKOV-3, day 4, mean ± SE, read-out: IC50 day 4.

Broadly, the IC50 is the point on the concentration scale where inhibition reaches its midpoint. `COc1cccc2c1C(=O)c1c(O)c3c(c(O)c1C2=O)C[C@@](O)(C(=O)CO)C[C@@H]3O[C@H]1C[C@H](N)[C@H](O)[C@H](C)O1` [ADRIAMYCIN ®, doxorubicin hydrochloride]: the IC50 in assay [1] (72 h, A549, day 3, mean ± SE, read-out: IC50 day 3) came out at 12 nM; in assay [1] (96 h, A549, day 4, mean ± SE, read-out: IC50 day 4), 27 nM; in assay [2] (setting [4]) it was 85 nM; in assay [2] (setting [5]), 48 nM; in assay [3] (MDA-MB-231, 72 h, read-out: IC50 day 3) it was 190 nM; in assay [3] (MDA-MB-231, 96 h, read-out: IC50 day 4) it was 51 nM.

Regarding `CC(=O)O[C@@]12CO[C@@H]1C[C@H](O)[C@@]1(C)C(=O)[C@H](O)C3=C(C)[C@@H](OC(=O)[C@H](O)[C@@H](NC(=O)OC(C)(C)C)c4ccccc4)C[C@@](O)([C@@H](OC(=O)c4ccccc4)[C@H]21)C3(C)C` [Docetaxel, docetaxel], the results for the IC50 in assay [2] (setting [4]) and in assay [2] (setting [5]) were 90.7 nM and 28.5 nM, respectively.
